# Results reported in patent publication US20210299156A1 (priority 2020, published 2021).
# Read-outs that look alike come from different tables or passages of the source.
# How the values were obtained:
# SARS-CoV-2 [1] = format: cell-based; conditions: EPIAIRWAY tissue pretreated with 2.5, 25, 250 μM; MOI 0.1
# SARS-CoV-2 [2] = format: cell-based; conditions: EPINASAL tissue pretreated with 2.5, 25, 250 μM; MOI 0.1
# SARS-CoV-2 [3] = format: in vivo, K18-hACE2 mice; conditions: 12 mg/kg per day intraperitoneal osmotic pump; 7 days after virus challenge
# SARS-CoV-2 [4] = format: cell-based; conditions: MOI 0.1
# SARS-CoV-2 [5] = format: cell-based; conditions: for EC50: MOI 0.1
# SARS-CoV-2 [6] = system: SARS-CoV-2; parameters: species or system K18-hACE2 mice; conditions: mouse, in vivo
# SARS-CoV-2 [7] = conditions: VERO E6 cells
# [8] = biological target: plasma membrane nucleolin (Homo sapiens, UniProt P19338); parameters: key: 1: Indicates a good plasma membrane nucleolin-binding GRO.; 2: Indicates a nucleolin control (non-plasma membrane nucleolin binding); conditions: cited from earlier work
# Sequence of plasma membrane nucleolin (P19338 whole entry): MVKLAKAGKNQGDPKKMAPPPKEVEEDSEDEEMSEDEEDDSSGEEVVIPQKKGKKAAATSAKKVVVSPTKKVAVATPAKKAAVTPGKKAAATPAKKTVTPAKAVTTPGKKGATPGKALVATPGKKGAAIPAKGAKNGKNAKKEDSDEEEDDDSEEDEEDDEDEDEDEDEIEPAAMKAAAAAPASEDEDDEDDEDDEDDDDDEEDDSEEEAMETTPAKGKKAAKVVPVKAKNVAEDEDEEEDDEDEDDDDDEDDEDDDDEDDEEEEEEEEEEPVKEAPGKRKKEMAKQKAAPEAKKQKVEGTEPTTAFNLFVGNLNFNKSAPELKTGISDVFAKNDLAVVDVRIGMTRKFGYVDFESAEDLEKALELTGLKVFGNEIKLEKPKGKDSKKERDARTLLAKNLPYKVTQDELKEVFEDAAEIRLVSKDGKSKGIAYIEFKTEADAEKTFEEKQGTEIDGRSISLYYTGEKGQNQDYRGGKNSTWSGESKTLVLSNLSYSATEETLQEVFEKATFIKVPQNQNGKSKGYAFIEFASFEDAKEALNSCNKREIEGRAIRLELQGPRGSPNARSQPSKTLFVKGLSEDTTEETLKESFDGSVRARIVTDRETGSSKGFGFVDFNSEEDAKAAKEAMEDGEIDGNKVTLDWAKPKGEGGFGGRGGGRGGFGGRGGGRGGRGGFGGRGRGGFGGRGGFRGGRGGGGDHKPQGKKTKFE
# [9] = PEP: drug 4 hours after virus challenge
# [10] = PrEP: drug 4 hours before virus challenge
substance,measurement,setting,value
"AS1411: GRO nucleolin-binding DNA aptamer, SEQ ID NO:10, ggtggtggtg gttgtggtgg tggtgg",reduction in viral titer,SARS-CoV-2 [1],≤ 5 logs fold
same,reduction in viral titer,SARS-CoV-2 [2],≤ 3.5 logs fold
same,survival rate,SARS-CoV-2 [3],100%
same,EC50,SARS-CoV-2 [4]; [9],1500 nM
same,EC90,SARS-CoV-2 [4]; [9],3200 nM
same,EC50,SARS-CoV-2 [4]; [10],986 nM
same,EC90,SARS-CoV-2 [4]; [10],2160 nM
same,protective effect compared to the vehicle group,"SARS-CoV-2 [5]; 2.5 μM and 20 μM, EPIAIRWAY tissue, FIG. 29",reduction of virus
same,EC50,"SARS-CoV-2 [5]; 72 Hours Post-Infection, EPIAIRWAY tissue",942 nM
same,EC50,"SARS-CoV-2 [5]; 96 Hours Post-Infection, EPIAIRWAY tissue",1410 nM
same,EC50,"SARS-CoV-2 [5]; 120 Hours Post-Infection, EPIAIRWAY tissue",650 nM
same,interference between AS1411 and remdesivir in combination,"SARS-CoV-2 [5]; EPIAIRWAY tissue TCID50/ml, FIG. 27",do not interfere with each other
same,interference between AS1411 and dexamethasone in combination,"SARS-CoV-2 [5]; EPIAIRWAY tissue TCID50/ml, FIG. 28",do not interfere with each other
same,inhibiting the virus (TCID50/ml),SARS-CoV-2 [6],"effective for inhibiting the virus in the nasal passage and kidneys of the mice, although not as effectively as in the lungs"
same,inhibiting the virus in the brain (TCID50/ml),SARS-CoV-2 [6],not effective for inhibiting the virus in the brain
same,inhibiting the virus in the lungs (TCID50/ml),SARS-CoV-2 [6],effective for inhibiting the virus in the lungs
same,concentration at which inhibition of SARS-CoV-2 virus-induced syncytium formation begins,"SARS-CoV-2 [7]; MOI 0.01, 72 hours",≥ 0.625 µM
same,dose at which cytopathic effects of SARS-CoV-2 are markedly reduced,"SARS-CoV-2 [7]; MOI 0.01, 72 hours",≥ 0.625 µM
same,cytotoxicity,SARS-CoV-2 [7]; from 0.625 μM,without cytotoxicity
same,toxicity in EPIAIRWAY model,EPIAIRWAY™ tissue,not toxic
same,plasma membrane nucleolin binding (footnote designation),[8],GRO26B^1
